Assay results taken from article PMC7566295, “Discovery of a Novel Natural Allosteric Inhibitor That Targets NDM-1 Against Escherichia coli” (Frontiers in Pharmacology, 2020).
Like-named read-outs stand apart in the source and are kept apart here.

Key:
NDM-1 [1] = biological target: T1, NDM-1 (Klebsiella pneumoniae, UniProt C7C422); test: Enzyme inhibition assay (nitrocefin hydrolysis); type: biochemical
T1 construct: made in house; host or cells: E. coli BL21
Method: (§1) According to the methodology of Liu et al. the enzyme and nitrocefin were mixed and incubated at 37°C for 10 min. Consequently, absorbance was measured at 492 nm in a microplate reader. The specific calculation method was obtained from the literature ([Liu et al., 2018b]).

NDM-1 [2] = conditions: ref Chiou et al., 2015; read-out: IC50 for inhibiting NDM-1 in the hydrolysis of imipenem; cited from earlier work
[3] = system: bacteria carrying carbapenemases; set-up: method as in Chiou et al., 2015; conditions: ref Chiou et al., 2015; cited from earlier work
[4] = system: E. coli ZC-YN3 (producing NDM-1); test: MIC by broth microdilution / checkerboard; type: cell-based; conditions: Escherichia coli
E. coli ZC-YN3 [5] = test: Time-killing assay; type: cell-based, Escherichia coli; conditions: after 4 hours
[6] = set-up: method as in Hecker et al., 2020; conditions: rats; ref Hecker et al., 2020; cited from earlier work
[7] = system: F46A-NDM-1, L65A-NDM-1, T94A-NDM-1 mutants; test: Enzyme inhibition assay with NDM-1 mutants; type: biochemical, E. coli; conditions: Figure 5E
Source text: The coding sequence of the NDM-1 gene were amplified from genomic DNA of E. coli and digested with BamHI and XhoI. Subsequently, it was cloned into pET28a to generate plasmid pET28a-NDM-1. Plasmids encoding F46A-NDM-1, L65A-NDM-1, and T94A-NDM-1 were constructed using a QuikChange site-directed mutagenesis kit. The ligation product was transformed into competent E. coli DH5α cells. All constructed strains were verified by PCR and DNA sequencing ([Ali et al., 2018]). The NDM-1 primer came from the literature ([Teng et al., 2019]), and the other primers were designed in this experiment.
as §1

E. coli ZC-YN3 [8] = test: Growth curves; type: cell-based, Escherichia coli; conditions: carnosic acid alone, Figure 2A
F46A-NDM-1 [9] = biological target: T2, F46A-NDM-1 (Klebsiella pneumoniae, UniProt C7C422, F46A); test: Fluorescence-quenching assay; type: binding, E. coli; conditions: F46A-NDM-1, 300 K
Method: (§2) The binding constant (KA) of the binding site of carnosic acid to wild type NDM-1 (WT-NDM-1), F46A-NDM-1, L65A-NDM-1, and T94A-NDM-1 was measured using a fluorescence quenching method. The binding energy was calculated according to the equation: r/Df = nK − rK. This method referred to the previous literature ([Wang J. F. et al., 2015]), using an excitation wavelength of 280 nm and an emission wavelength of 345 nm.

L65A-NDM-1 [10] = biological target: T3, L65A-NDM-1 (Klebsiella pneumoniae, UniProt C7C422, L65A); test: Fluorescence-quenching assay; type: binding, E. coli; conditions: L65A-NDM-1, 300 K
Method: as §2

T94A-NDM-1 [11] = biological target: T4, T94A-NDM-1 (Klebsiella pneumoniae, UniProt C7C422, T94A); test: Fluorescence-quenching assay; type: binding, E. coli; conditions: T94A-NDM-1, 300 K
Method: as §2

WT-NDM-1 [12] = biological target: T5, WT-NDM-1 (Klebsiella pneumoniae, UniProt C7C422); test: Fluorescence-quenching assay; type: binding, E. coli; conditions: WT-NDM-1, 300 K
T5 construct: made in house; host or cells: E. coli BL21
Method: as §2

F46A-NDM-1 [13] = biological target: T2, F46A-NDM-1; test: Enzyme reaction rate (steady-state kinetics, nitrocefin); type: biochemical, E. coli; conditions: F46A treated with carnosic acid
Method: (§3) The principle of the measurement is mainly by using nitrocefin as an indicator, and its color changes from yellow to red with the increase of hydrolysis. NDM-1 (250 ng/ml) was incubated with various concentrations of carnosic acid in phosphate buffered saline, and then 50 μg/m L of nitrocefin was added to the mixture ([Teng et al., 2019]). The reaction rate was determined by continuously measuring the absorbance at OD492 nm at different times ([Krupyanko, 2009]).

L65A-NDM-1 [14] = biological target: T3, L65A-NDM-1; test: as above; type: biochemical, E. coli; conditions: L65A treated with carnosic acid
Method: as §3

T94A-NDM-1 [15] = biological target: T4, T94A-NDM-1; test: as above; type: biochemical, E. coli; conditions: T94A treated with carnosic acid
Method: as §3

WT-NDM-1 [16] = biological target: T5, WT-NDM-1; test: as above; type: biochemical, E. coli; conditions: WT-NDM-1 treated with carnosic acid
Method: as §3

mice = conditions: acute toxicity study, ref Wang et al., 2012; cited from earlier work
[17] = screening hits, Figure 1A, read-out: IC50 (converted)

T1 sequence (C7C422 29-270, looked up): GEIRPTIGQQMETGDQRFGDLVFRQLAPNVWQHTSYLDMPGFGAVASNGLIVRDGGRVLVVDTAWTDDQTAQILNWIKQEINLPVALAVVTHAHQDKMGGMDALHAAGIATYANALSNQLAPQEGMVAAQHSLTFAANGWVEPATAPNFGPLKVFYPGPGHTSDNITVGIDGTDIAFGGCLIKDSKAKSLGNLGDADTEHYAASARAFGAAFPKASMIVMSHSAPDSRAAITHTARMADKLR
T3 sequence (C7C422 29-270 L65A): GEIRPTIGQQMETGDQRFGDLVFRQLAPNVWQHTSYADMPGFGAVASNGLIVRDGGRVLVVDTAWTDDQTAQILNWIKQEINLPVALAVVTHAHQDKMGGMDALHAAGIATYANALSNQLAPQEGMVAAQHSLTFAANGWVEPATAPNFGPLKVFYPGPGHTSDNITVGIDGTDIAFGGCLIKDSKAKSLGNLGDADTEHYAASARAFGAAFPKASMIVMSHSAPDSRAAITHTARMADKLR
T5 sequence (C7C422 29-270 limits assumed): as the sequence (C7C422 29-270, looked up) above
T4 sequence (C7C422 29-270 T94A): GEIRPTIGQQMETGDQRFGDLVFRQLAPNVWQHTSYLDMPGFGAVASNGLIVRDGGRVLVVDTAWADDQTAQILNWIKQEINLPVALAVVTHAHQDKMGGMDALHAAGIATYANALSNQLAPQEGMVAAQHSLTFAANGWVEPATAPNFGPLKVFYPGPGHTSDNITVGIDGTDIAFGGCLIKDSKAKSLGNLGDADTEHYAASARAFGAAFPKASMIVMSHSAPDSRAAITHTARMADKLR
T2 sequence (C7C422 29-270 F46A): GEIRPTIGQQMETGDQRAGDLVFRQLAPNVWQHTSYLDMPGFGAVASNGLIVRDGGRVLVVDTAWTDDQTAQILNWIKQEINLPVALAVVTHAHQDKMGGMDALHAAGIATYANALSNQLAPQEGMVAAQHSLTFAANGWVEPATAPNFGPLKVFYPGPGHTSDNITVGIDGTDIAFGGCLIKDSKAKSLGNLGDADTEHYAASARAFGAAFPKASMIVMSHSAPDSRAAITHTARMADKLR

`O=C(/C=C/c1ccc(O)cc1)c1ccc(O)cc1O` [6'-Deoxychalcone] gave an IC50 (NDM-1 [1]) of 163 µM.
`COc1cc(O)cc2c1C(=O)C[C@@H](c1ccccc1)O2` [Alpinetin] gave an IC50 (NDM-1 [1]) of 122 µM.
In the case of `C[N+](C)(C)CC(=O)O` [Betaine], the IC50 (NDM-1 [1]; [17]) is reported as 355 µM.
With `O=C(O)/C=C/c1ccccc1` [Cinnamic Acid] the IC50 (NDM-1 [1]) was 225 µM.
In the case of `C[C@H](CS)C(=O)N1CCC[C@@H]1C(=O)O` [D-captopril], the IC50 (NDM-1 [2]) is listed as […] and the “effect on bacteria carrying carbapenemases” value [3] is listed as “no effect”.
For `C[C@H](CS)C(=O)N1CCC[C@H]1C(=O)O` [L-captopril], the IC50 (NDM-1 [2]) is given as […] and the “effect on bacteria carrying carbapenemases” value [3] is given as “no effect”.
Compound `CCCCC/C=C\C/C=C\CCCCCCCC(=O)O` [Linolate] has an IC50 (NDM-1 [1]; [17]) of 218 µM.
Work on `O=C1C[C@@H](c2ccc(O[C@@H]3O[C@H](CO)[C@@H](O)[C@H](O)[C@H]3O)cc2)Oc2cc(O)ccc21` [Liquiritin] yielded an IC50 (NDM-1 [1]) of 130 µM.
In the case of `C[C@@H](O)[C@H]1C(=O)N2C(C(=O)O)=C(S[C@@H]3CN[C@H](C(=O)N(C)C)C3)[C@H](C)[C@H]12` [Meropenem, meropenem, reference compound], the MIC ([4]; meropenem alone, read-out: MIC of meropenem) is reported as 16 µg/mL and the “inhibitory effect on E. coli (time-kill)” value (E. coli ZC-YN3 [5]) is reported as “weakened”.
In the case of `O=C(O)c1c(F)ccc2c1OB(O)[C@@H]1C[C@H]21` [QPX7728], the oral bioavailability [6] is given as “good oral bioavailability”.
In the case of `O=c1c(-c2ccc(O[C@@H]3O[C@H](CO)[C@@H](O)[C@H](O)[C@H]3O)cc2)coc2cc(O)cc(O)c12` [Sophoricoside], the IC50 (NDM-1 [1]; [17]) is reported as 152 µM.
In the case of `CC(C)c1cc2c(c(O)c1O)[C@@]1(C(=O)O)CCCC(C)(C)[C@@H]1CC2` [carnosic acid], the IC50 (NDM-1 [1]) is reported as 27.1 µM, the “decrease of protein activity” value (NDM-1 [1]; 8 μg/ml carnosic acid) is reported as 48.56% and the “activity of the protein (remaining)” value (NDM-1 [1]; 32 μg/ml carnosic acid) is reported as 19.85%. The “effect on the activity of mutants” value [7] was “no obvious effect on the activity of mutants”, the MIC [4] was over 32 µg/mL and the effect on growth (E. coli ZC-YN3 [8]) was “nor inhibitory effect on the growth of E. coli ZC-YN3”. The “Binding constants K” value (F46A-NDM-1 [9]) was 0.1272 mL/µg, the “Binding constants K” value (L65A-NDM-1 [10]) was 0.336 mL/µg and the “Binding constants K” value (T94A-NDM-1 [11]) was 0.3291 mL/µg. The “Binding constants K” value (WT-NDM-1 [12]) was 0.4564 mL/µg, the “hydrolysis reaction rate (slope of absorbance at 492 nm vs time)” value (F46A-NDM-1 [13]) was 0.0225 and the “hydrolysis reaction rate (slope of absorbance at 492 nm vs time)” value (L65A-NDM-1 [14]) was 0.02164. For the same compound, the “hydrolysis reaction rate (slope of absorbance at 492 nm vs time)” value (T94A-NDM-1 [15]) was 0.02277, the “hydrolysis reaction rate (slope of absorbance at 492 nm vs time)” value (WT-NDM-1 [16]) was 0.00742 and the oral lethal dose (mice) was “greater than 7000 mg/kg”.
